Test systems include UACC-257; SNB-19; SR; RPMI-8226; MDA-N; U-251; LOX IMVI; SK-MEL-28; NCI-H460; UACC-62; MDA-MB-435; T47D; IGROV-1; NCI-H226; SNB-75; EKVX; A549; HCT-116; BT-549; CCRF-CEM.
Holding throughout (experiment): NCI tumour cell line growth inhibition, 48 h

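Dose response: 5 concentrations. Exposure: 48 h. Format: 96-well plates. Endpoint: linear interpolation; highest concentration if not reached. GI50 marks 50% less growth.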 Calls of active or inactive are those of the source. Rule as the data show it: active = GI50 up to about 1.1 µM and inactive = higher.

The values below come from ChEMBL document CHEMBL1201862, “PubChem BioAssay data set” (2004).

For `NS(=O)(=O)c1nnc(/N=C(/CCC(=O)O)C(=O)O)s1`, the GI50 in the test with UACC-257, with SNB-19, in the test with SR, with RPMI-8226, in the test on MDA-N and with U-251 was > 100 µM (inactive) each time. For the same compound, the GI50 with LOX IMVI, in the test on SK-MEL-28, with NCI-H460, with UACC-62, in the test on MDA-MB-435 and in the test on T47D was > 100 µM (inactive) throughout. The GI50 in the test with IGROV-1, in the test with NCI-H226, in the test on SNB-75, in the test on EKVX, in the test with A549 and in the test on HCT-116 was > 100 µM (inactive) in each case. Also, the GI50 in the test on BT-549 and with CCRF-CEM was > 100 µM (inactive) each time.
Consider `CC(Cc1ccc(O)c(O)c1)C(C)Cc1ccc(O)c(O)c1` (centres undefined) [NORDIHYDROGUAIARETIC ACID], for which the GI50 with UACC-257 is 18.2 µM (inactive); in the test with SNB-19, 19.5 µM (inactive); in the test on SR, 9.79 µM (inactive); with RPMI-8226 it was 10.1 µM (inactive); in the test with MDA-N, 10.2 µM (inactive); in the test with U-251, 18.7 µM (inactive). Besides, the GI50 in the test on LOX IMVI is 17.4 µM (inactive); in the test on SK-MEL-28, 16.2 µM (inactive); with NCI-H460, 16.7 µM (inactive); with UACC-62, 16 µM (inactive); in the test with MDA-MB-435, 13.5 µM (inactive); in the test on T47D it was 18.4 µM (inactive). The GI50 with IGROV-1 was 16.9 µM (inactive); in the test with NCI-H226 it was 22.5 µM (inactive); with SNB-75 it was 19.8 µM (inactive); in the test with EKVX it was 23.4 µM (inactive); with A549, 33 µM (inactive); in the test with HCT-116, 17.3 µM (inactive). The GI50 in the test on BT-549 is 13.9 µM (inactive); with CCRF-CEM, 4.38 µM (inactive).
Consider `N=C(N)c1ccc(/N=N\c2c(O)c(C(=O)Nc3ccccc3)cc3ccccc23)cc1`, for which the GI50 with UACC-257 was > 68.7 µM (inactive); in the test with SNB-19, 19.6 µM (inactive); in the test on SR, 7.89 µM (inactive); with RPMI-8226, 4.6 µM (inactive); with MDA-N it was 35.7 µM (inactive); in the test with U-251, 3.76 µM (inactive). For the same compound, the GI50 with LOX IMVI was 2.02 µM (inactive); with SK-MEL-28 it was > 100 µM (inactive); with NCI-H460, 24.8 µM (inactive); in the test with UACC-62 it was > 87.5 µM (inactive); in the test on MDA-MB-435 it was 41.5 µM (inactive); in the test on T47D, 17.4 µM (inactive). The GI50 in the test with IGROV-1 is 18.7 µM (inactive); in the test with NCI-H226, 34.8 µM (inactive); in the test with SNB-75 it was 12.9 µM (inactive); in the test with EKVX, 17 µM (inactive); with A549, > 59.6 µM (inactive); with HCT-116 it was 3.3 µM (inactive). Moreover, the GI50 is 46 µM (inactive) with BT-549 and 2.33 µM (inactive) with CCRF-CEM.
Consider `CCCCCCCC(=O)N/N=C/c1ccc(Sc2nccn2C)c([N+](=O)[O-])c1`, for which the GI50 in the test on UACC-257 was 13.7 µM (inactive); with SNB-19, 21.4 µM (inactive); in the test on SR, 18.8 µM (inactive); with RPMI-8226 it was 13 µM (inactive); in the test with MDA-N it was 16.5 µM (inactive); in the test with U-251 it was 16.2 µM (inactive). Moreover, the GI50 with LOX IMVI was 10.4 µM (inactive); with SK-MEL-28, 13.9 µM (inactive); with NCI-H460, 14.9 µM (inactive); in the test with UACC-62 it was 13 µM (inactive); in the test on MDA-MB-435 it was 13.6 µM (inactive); with T47D, 10.7 µM (inactive). Further, the GI50 with IGROV-1 is 6.79 µM (inactive); with NCI-H226, 14.5 µM (inactive); in the test on SNB-75, 15.5 µM (inactive); in the test on EKVX, 14.7 µM (inactive); in the test on A549 it was 27.9 µM (inactive); in the test on HCT-116, 14.4 µM (inactive). Besides, the results for the GI50 in the test with BT-549 and in the test on CCRF-CEM were 16.1 µM (inactive) and 0.538 µM (active), respectively.
Consider `Cc1cc(Nc2ccc(S(=O)(=O)O)cc2)c2ccccc2n1`, for which the GI50 in the test on UACC-257, in the test on SNB-19, with SR, in the test on RPMI-8226, in the test on MDA-N and in the test on U-251 was > 100 µM (inactive) each time. The GI50 with LOX IMVI, in the test with SK-MEL-28, in the test on UACC-62, in the test on MDA-MB-435, in the test on T47D and in the test with IGROV-1 was > 100 µM (inactive) each time. Also, the GI50 with NCI-H226, in the test on SNB-75, with EKVX, in the test on A549, in the test on HCT-116 and in the test with BT-549 was > 100 µM (inactive) each time. The GI50 with CCRF-CEM was > 100 µM (inactive).
As for `O=c1c(=O)c2c(Br)sc(Br)c2c1=O`, the GI50 in the test with UACC-257 is 19.5 µM (inactive); in the test with SNB-19, 70.6 µM (inactive); in the test on SR, 20.6 µM (inactive); in the test on RPMI-8226, 21.6 µM (inactive); in the test with MDA-N, 18.1 µM (inactive); in the test with U-251 it was 23.6 µM (inactive). The GI50 with LOX IMVI was 19.7 µM (inactive); in the test with SK-MEL-28, 14.7 µM (inactive); in the test with NCI-H460, > 100 µM (inactive); with UACC-62, 20.1 µM (inactive); in the test on MDA-MB-435, 19.1 µM (inactive); with T47D, 20 µM (inactive). The GI50 in the test on IGROV-1 is 18.2 µM (inactive); in the test on NCI-H226 it was > 100 µM (inactive); in the test with SNB-75 it was 28.9 µM (inactive); in the test on EKVX, 20.1 µM (inactive); in the test with A549, > 100 µM (inactive); with HCT-116, 20.1 µM (inactive). Besides, in the test with BT-549, the GI50 is 19.4 µM (inactive).
For `COc1ccc(C(OCC2OC(n3cc(C)c(=O)[nH]c3=O)CC2n2cc(Cn3cc(I)c(=O)[nH]c3=O)nn2)(c2ccccc2)c2ccccc2)cc1` (centres undefined), the GI50 is > 100 µM (inactive) in the test with UACC-257; > 100 µM (inactive) in the test on SNB-19; > 100 µM (inactive) with SR; 15.2 µM (inactive) with RPMI-8226; > 100 µM (inactive) in the test with MDA-N; > 100 µM (inactive) in the test on U-251. Further, the GI50 with LOX IMVI, with SK-MEL-28, in the test with UACC-62, in the test with MDA-MB-435, in the test on T47D and with IGROV-1 was > 100 µM (inactive) in each case. For the same compound, the GI50 was > 100 µM (inactive) in the test with NCI-H226; 48.6 µM (inactive) in the test on SNB-75; > 100 µM (inactive) in the test on EKVX; > 100 µM (inactive) with A549; > 100 µM (inactive) with HCT-116; > 100 µM (inactive) in the test on BT-549. Besides, the GI50 with CCRF-CEM is 11.2 µM (inactive).
Consider `NS(=O)(=O)c1ccc(/N=N/c2ccc(O)c(O)c2)cc1`, for which the GI50 is 24.3 µM (inactive) in the test with UACC-257; 21.8 µM (inactive) with SNB-19; 3.05 µM (inactive) with SR; 10.7 µM (inactive) in the test on RPMI-8226; 20.6 µM (inactive) with MDA-N; 12.6 µM (inactive) with U-251. Also, the GI50 with LOX IMVI is 15 µM (inactive); in the test on SK-MEL-28 it was 18.1 µM (inactive); with NCI-H460, 19.9 µM (inactive); with MDA-MB-435 it was 15.1 µM (inactive); in the test on T47D, 34.8 µM (inactive); in the test with IGROV-1 it was 11.7 µM (inactive). Also, the GI50 was 14.5 µM (inactive) in the test on NCI-H226; 25 µM (inactive) in the test with SNB-75; 46.2 µM (inactive) with EKVX; 20.3 µM (inactive) in the test on A549; 9.71 µM (inactive) in the test with HCT-116; 2.58 µM (inactive) with BT-549. The GI50 in the test on CCRF-CEM was 3.56 µM (inactive).
Turning to `COC(=O)N1C2C(C[C@@]1(C)C(=O)OC)c1ccccc1N2S(=O)(=O)c1ccccc1` (some centres undefined), the GI50 with UACC-257, with SNB-19, in the test on SR, with RPMI-8226, in the test with MDA-N and with LOX IMVI was > 100 µM (inactive) each time. Also, the GI50 with SK-MEL-28, with NCI-H460, in the test with UACC-62, in the test with MDA-MB-435, in the test with T47D and in the test with IGROV-1 was > 100 µM (inactive) in each case. Moreover, the GI50 with NCI-H226, in the test on SNB-75, with EKVX, in the test with A549, in the test with HCT-116 and with BT-549 was > 100 µM (inactive) in each case. In the test on CCRF-CEM, the GI50 is > 100 µM (inactive).
`COc1ccc(OC)c(Cc2cnc3nc(N)nc(N)c3c2C)c1` [PIRITREXIM ISETHIONATE]: the GI50 with UACC-257 is 13.9 µM (inactive); in the test with SNB-19, 0.236 µM (active); in the test with SR, 0.03 µM (active); with RPMI-8226, 0.173 µM (active); with MDA-N, < 0.018 µM (active); in the test with LOX IMVI, < 0.0142 µM (active). Besides, the GI50 in the test with SK-MEL-28 is 1.25 µM (inactive); with NCI-H460, < 0.01 µM (active); in the test on UACC-62, 0.853 µM (active); in the test with MDA-MB-435, < 0.0435 µM (active); in the test on T47D, 11.1 µM (inactive); with IGROV-1, < 0.0111 µM (active). In addition, the GI50 is 2.19 µM (inactive) with NCI-H226; 2.1 µM (inactive) with SNB-75; 19.5 µM (inactive) in the test on EKVX; < 0.01 µM (active) in the test on A549; < 0.0112 µM (active) in the test on HCT-116; 13.4 µM (inactive) in the test on BT-549. Also, the GI50 with CCRF-CEM is < 0.0198 µM (active).
